Laboratory results: US10717714B2, “Reactive ultraviolet absorber and application thereof” (CHITEC TECHNOLOGY CO., LTD., priority 2017, dated 2020)

Test: Thermal stability test (Gardner color of DMF solution before and after 150° C. for 3 hours)
Format: physicochemical
Conditions: for Color (Gardner color scale), after thermal processing for 3 hours / Color (Gardner color scale), initial: 2 g in 10 ml DMF; for Color (Gardner color scale), after thermal processing for 3 hours: 150° C. for 3 hours; for Color (Gardner color scale), initial: before thermal processing; for Change in color (delta color): before and after heating at 150° C. for 3 hours
Procedure: 2 g each of the reactive UV absorber I of the present invention, the comparative reactive UV absorber A, and the comparative reactive UV absorber B represented by the following formula B (an embodiment of reactive UV absorber with formula (IIIb) disclosed by U.S. Pat. No. 5,459,222) were respectively dissolved in 10 ml of dimethylformamide (DMF), and the obtained dimethylformamide solutions were subjected to thermal processing at 150° C. for 3 hours. The Gardner color scales of the solutions were measured by colorimeter (Lovibond PFXi-195).

SMILES	Color (Gardner color scale), after thermal processing for 3 hours	Color (Gardner color scale), initial	Change in color (delta color)
Cc1cc(CN(CCO)CCO)c(O)c(-n2n3c4ccccc4n23)c1 [Comparative reactive UV absorber B]	7.2	4.2	3.0
CC(C)(C)c1cc(CCC(=O)N(CCO)CCO)cc(-n2n3c4ccccc4n23)c1O [Comparative reactive UV absorber A]	9.1	5.4	3.7
